Key:
[1] = target: T1, PGM3 (N-Acetylglucosamine-phosphate Mutase) (Homo sapiens, UniProt O95394); assay: CETSA, Western blot (cell extract); settings: 30 min RT incubation of extract, heated 3 min at 49-70 °C or isothermal at 58 °C; prodrug tested, possible conversion to FR051 in lysate not excluded
T1 sequence (O95394 1-542): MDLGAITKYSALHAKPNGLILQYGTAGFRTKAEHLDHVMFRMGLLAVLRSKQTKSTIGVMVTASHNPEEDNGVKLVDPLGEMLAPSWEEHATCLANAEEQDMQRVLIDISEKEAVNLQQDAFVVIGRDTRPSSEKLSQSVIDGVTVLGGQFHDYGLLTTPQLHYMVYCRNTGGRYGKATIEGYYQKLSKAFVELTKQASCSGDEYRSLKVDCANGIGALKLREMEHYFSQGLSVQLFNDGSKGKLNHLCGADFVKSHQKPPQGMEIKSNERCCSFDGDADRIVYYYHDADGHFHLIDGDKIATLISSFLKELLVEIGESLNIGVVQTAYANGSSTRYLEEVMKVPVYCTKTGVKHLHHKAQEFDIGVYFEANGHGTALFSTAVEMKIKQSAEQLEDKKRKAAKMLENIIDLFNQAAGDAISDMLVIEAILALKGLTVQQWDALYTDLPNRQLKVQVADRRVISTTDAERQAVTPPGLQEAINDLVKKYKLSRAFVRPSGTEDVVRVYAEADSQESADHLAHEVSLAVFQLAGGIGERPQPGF

[2] = target: T1, PGM3 (N-Acetylglucosamine-phosphate Mutase); assay: ITDRF-CETSA, Western blot (cell extract); format: biochemical; set-up: endogenous full-length protein in MDA-MB-231 soluble extract (freeze-thaw), detected by Western blot; settings: 30 min RT incubation of extract, heated 3 min at 58 °C; natural substrate

SMILES | CETSA [1] | ITDRF CETSA [2]
CC(=O)OC[C@H]1O[C@@H]2OC(C)=N[C@@H]2[C@@H](OC(C)=O)[C@@H]1OC(C)=O [FR054, 2-methyl-(3,4,6-tri-O-acetyl-1,2-dideoxy-α-D-glucopyrano)-[2,1-d]-2-oxazoline] | FR054 markedly increased the accumulation of PGM3 in the soluble fraction | 
CC(=O)N[C@H]1C(O)O[C@H](COP(=O)(O)O)[C@@H](O)[C@@H]1O (some centres unmarked) [GlcNAc-6-P] |  | more potent binding than the natural substrate GlcNAc-6-P
